Test results taken from the NIST ThermoML archive (doi:10.1016/j.tca.2010.11.011).
Numbers after ± are expanded uncertainties.

Experiments:
[1] = DTA; for Normal melting temperature: Crystal; for Triple point temperature: Crystal 2
[2] = Molar enthalpy of transition or fusion; conditions: DSC

Row | SMILES | Normal melting temperature [1] [°C] | Molar enthalpy of transition or fusion ([2]; Crystal) [kJ/mol] | Triple point temperature [1] [K] | Molar enthalpy of transition or fusion ([2]; Crystal 2) [kJ/mol]
1 | COC(=O)c1ccc(C(=O)OC)cc1 [dimethyl 1,4-benzenedicarboxylate] | 142.00 ± 1 | 33 ± 0.97 | – | –
2 | O=C(O)CCCCC(=O)O [1,6-hexanedioic acid] | 153.00 ± 4 | 38 ± 1 | – | –
3 | NC(CO)(CO)CO [2-amino-2-(hydroxymethyl)-1,3-propanediol] | – | – | 405.15 ± 1 | 34.5 ± 0.97
4 | O=C(O)CCCCCCCCC(=O)O [1,10-decanedioic acid] | 132.00 ± 4 | 46.1 ± 1.2 | – | –
5 | O=C(O)/C=C\C(=O)O [cis-1,4-butenedioic acid] | 135.00 ± 8 | 27.3 ± 0.81 | – | –
6 | O=C1OC(=O)c2ccccc21 [isobenzofuran-1,3-dione] | 131.00 ± 1 | 23.6 ± 0.74 | – | –
7 | CC(CO)(CO)C(=O)O [2,2-bis(hydroxymethyl)propanoic acid] | – | – | 458.15 ± 1 | 38.8 ± 1.1
